Laboratory results taken from US20240417359A1, “PRECURSORS OF PHENOLIC FRAGRANT COMPOUNDS” (GIVAUDAN SA, priority 2021, published 2024).

How the values were obtained:
[1] = Washtest with liquid detergent and sensory evaluation of fabric by expert panel; settings: Table 3; for odour intensity, 1 day: dry fabric 1 day; for odour intensity, 1 day / odour intensity, 4 days / odour intensity, wet: scale 0 to 5; for odour intensity, 4 days: dry fabric 4 days; for odour intensity, wet / odour on dry fabric: heavy duty liquid detergent washtest; for odour intensity, wet: wet fabric
Protocol: The wet and line-dried fabric (1 and 4 days) was assessed by a panel of 4-6 experts with regard to odour intensity and quality. The odour intensity was recorded on an intensity scale of 0 (odourless) to 5 (extremely strong).
The odour intensity was recorded on an intensity scale of 0 (odorless) to 5 (extremely strong).
Heavy duty liquid detergent samples were prepared and used in washtests and subsequent sensory evaluation of the washed and dried fabric as described in Example 60a and c. The odour intensity was recorded on an intensity scale of 0 (odourless) to 5 (extremely strong).

[2] = Odour description on paper blotter; settings: 1% solution in EtOH on paper blotter, 24 h
[3] = Application in shampoo base: sensory evaluation of washed hair swatches by expert panel; set-up: species or system human; settings: Table 4; for odour intensity, wet: 0.2% by weight in shampoo base, wet hair swatch, scale 0 (odourless) to 5 (extremely strong); for odour intensity, 1 day: dried hair swatch 1 day; for odour intensity, 1 day / odour intensity, 3 days: scale 0 to 5; for odour intensity, 3 days: dried hair swatch 3 days
Protocol: Odour-neutral human hair swatches were wetted with warm tap water and lathered delicately with 2 mL of the above hair shampoo samples for 30 sec by hand wearing gloves. The lathered hair swatches were left in a plastic bowl for 2 min, then rinsed under running tap water for 20 sec. After removing excess water by squeezing the hair swatches between two fingers, they were left to dry in open air. The wet and dried hair swatches (1 and 3 days) were assessed by a panel of 4-6 experts with regard to odour intensity and quality. The odour intensity was recorded on an intensity scale of 0 (odourless) to 5 (extremely strong).

C=CCc1ccc(OC(CC=C)CCCCCCCCC)c(OC)c1 (centres unmarked) [4-allyl-2-methoxy-1-(tridec-1-en-4-yloxy)benzene]
odour intensity, 1 day [1]: 2.1 | odour intensity, 4 days [1]: 2.7 | odour intensity, wet [1]: 2.1

C=CCC(CC/C=C\CC)Oc1ccc(C=O)cc1OCC (centres unmarked) [Example 12, (Z)-4-(deca-1,7-dien-4-yloxy)-3-ethoxybenzaldehyde]
Odour description [2]: powdery (vanilla) | odour intensity, 1 day [1]: 3.0 | odour intensity, 4 days [1]: 3.7 | odour intensity, wet [1]: 0.4

C=CCC(CCCCCCCCC)Oc1ccc(CCC(C)=O)cc1 (centres unmarked) [Example 36, 4-(4-(tridec-1-en-4-yloxy)phenyl)butan-2-one]
Odour description [2]: fruity, juicy, raspberry, aldehydic, green, metallic | odour intensity, wet [3]: 2.3 | odour intensity, 1 day [3]: 1.9 | odour intensity, 3 days [3]: 1.6

C=CCC(CCCCCCCCCC)Oc1ccc(C=O)cc1OC (centres unmarked) [Example 38, 3-methoxy-4-(tetradec-1-en-4-yloxy)benzaldehyde]
Odour description [2]: powdery, vanilla, creamy, aldehydic, mandarin, madeleine | odour intensity, 1 day [1]: 3.0 | odour intensity, 4 days [1]: 3.2 | odour on dry fabric [1]: madeleine | odour intensity, wet [1]: 2.2

CC(=O)CCc1ccc(OCCC=C(C)CCc2ccccc2)cc1 [Example 52, 4-(4-((4-methyl-6-phenylhex-3-en-1-yl)oxy)phenyl)butan-2-one]
Odour description [2]: sweet, crystal sugar, fruity, raspberry | odour intensity, 1 day [1]: 2.9 | odour intensity, 4 days [1]: 3.3 | odour on dry fabric [1]: raspberry, sweet | odour intensity, wet [1]: 1.6

COc1ccc(CCC(C)=CCCOc2ccc(CCC(C)=O)cc2)cc1 [Example 55, 4-(4-((6-(4-methoxyphenyl)-4-methylhex-3-en-1-yl)oxy)phenyl)butan-2-one]
Odour description [2]: sweet, fruity, raspberry | odour intensity, wet [3]: 1.1 | odour intensity, 1 day [3]: 2.8 | odour intensity, 3 days [3]: 3.0

CCOc1cc(C=O)ccc1OCCC=C(C)CCCc1ccccc1 [Example 58, 3-ethoxy-4-((4-methyl-7-phenylhept-3-en-1-yl)oxy)benzaldehyde]
Odour description [2]: powdery, vanilla, creamy, chocolate

CC(=O)CCc1ccc(OCCC=C(C)CCCc2ccccc2)cc1 [Example 59, 4-(4-((4-methyl-7-phenylhept-3-en-1-yl)oxy)phenyl)butan-2-one]
Odour description [2]: powdery fruity, raspberry

CCOc1cc(C=O)ccc1OCCC=C(C)CCC=C(C)C [Example 60, 4-((4,8-dimethylnona-3,7-dien-1-yl)oxy)-3-ethoxybenzaldehyde]
Odour description [2]: gourmand (vanilla, rhum, vanilla bean) sweet (vanilla)

C=CCc1ccc(OCCC=C(C)CCC=C(C)C)c(OC)c1 [Example 61, 4-allyl-1-((4,8-dimethylnona-3,7-dien-1-yl)oxy)-2-methoxybenzene]
Odour description [2]: spicy

COC(=O)c1c(C)cc(OCC/C=C(\C)CCC=C(C)C)c(C)c1O [Example 62, methyl (E)-4-((4,8-dimethylnona-3,7-dien-1-yl)oxy)-2-hydroxy-3,6-dimethylbenzoate]
Odour description [2]: powdery (mossy)

CCOc1cc(C=O)ccc1OC(C)C(C)/C=C/C1CC=C(C)C1(C)C (centres unmarked) [Example 63, (E)-3-ethoxy-4-((3-methyl-5-(2,2,3-trimethylcyclopent-3-en-1-yl)pent-4-en-2-yl)oxy)benzaldehyde]
Odour description [2]: woody, sandalwoody, hay

CCCCC/C=C\CCOc1ccc(C=O)cc1OCC [Example 64, (Z)-3-ethoxy-4-(non-3-en-1-yloxy)benzaldehyde]
Odour description [2]: vanilla (powdery, spicy, creamy)

CCOc1cc(C)ccc1OCCC=C(C)CCC=C(C)CCC=C(C)C [Example 65, 2-ethoxy-4-methyl-1-((4,8,12-trimethyltrideca-3,7,11-trien-1-yl)oxy)benzene]
Odour description [2]: phenolic (medicinal, ultravanil, balsamic vanilla bean, cough syrup)

COC(=O)c1c(C)cc(OCCC=C(C)CCC=C(C)CCC=C(C)C)c(C)c1O [Example 66, methyl 2-hydroxy-3,6-dimethyl-4-((4,8,12-trimethyltrideca-3,7,11-trien-1-yl)oxy)benzoate]
Odour description [2]: powdery mossy (evernyl)

C=CCC(Oc1ccc(C=O)cc1OCC)c1ccccc1 (centres unmarked) [Example 68, 3-ethoxy-4-((1-phenylbut-3-en-1-yl)oxy)benzaldehyde]
Odour description [2]: powdery (vanilla), green

C=CCC(CC/C=C\CC)Oc1cc(C)c(C(=O)OC)c(O)c1C (centres unmarked) [Example 69, methyl (Z)-4-(deca-1,7-dien-4-yloxy)-2-hydroxy-3,6-dimethylbenzoate]
Odour description [2]: powdery green marine (evernyl) | odour intensity, 1 day [1]: 1.9 | odour intensity, 4 days [1]: 2.5 | odour on dry fabric [1]: mossy, woody | odour intensity, wet [1]: 0.5

CC/C=C\CCCC/C=C/CCOc1ccc(C=O)cc1OCC [Example 76, 4-(((3E,9Z)-dodeca-3,9-dien-1-yl)oxy)-3-ethoxybenzaldehyde]
Odour description [2]: green, melon, powdery, vanilla

CC/C=C\CCCC/C=C/CCOc1cc(C)c(C(=O)OC)c(O)c1C [Example 77, methyl 4-(((3E,9Z)-dodeca-3,9-dien-1-yl)oxy)-2-hydroxy-3,6-dimethylbenzoate]
Odour description [2]: powdery, oakmoss

C=CCC(CCC=CCC)Oc1ccc(C=O)cc1OCC (centres unmarked) [Example 78, 4-(deca-1,7-dien-4-yloxy)-3-ethoxybenzaldehyde]
Odour description [2]: powdery, vanilla

CCOc1cc(C=O)ccc1OCCC=C(C)CCc1ccc2c(c1)OCO2 [Example 79, 4-((6-(benzo[d][1,3]dioxol-5-yl)-4-methylhex-3-en-1-yl)oxy)-3-ethoxybenzaldehyde]
Odour description [2]: sweet powdery, creamy, vanilla, vanitrope

CC(=O)CCc1ccc(OCCC=C(C)CCc2ccc3c(c2)OCO3)cc1 [Example 80, 4-(4-((6-(benzo[d][1,3]dioxol-5-yl)-4-methylhex-3-en-1-yl)oxy)phenyl)butan-2-one]
Odour description [2]: fruity, raspberry, grenadine, berryflor, fresh, transparent

CC(=O)CCc1ccc(OCCC=C(C)CCC2=C(C)CCCC2(C)C)cc1 [Example 82, 4-(4-((4-methyl-6-(2,6,6-trimethylcyclohex-1-en-1-yl)hex-3-en-1-yl)oxy)phenyl)butan-2-one]
Odour description [2]: fruity, sweet, powdery, raspberry ketone

CCOc1cc(C=O)ccc1OCCC=CC(C)CCC=C(C)C (centres unmarked) [Example 84, 4-((5,9-dimethyldeca-3,8-dien-1-yl)oxy)-3-ethoxybenzaldehyde]
Odour description [2]: powdery, vanilla, chocolate milk, slightly fresh, fatty, watery, melon | odour intensity, wet [3]: 0.7 | odour intensity, 1 day [3]: 2.7 | odour intensity, 3 days [3]: 3.6

CCOc1cc(C=O)ccc1OCCC=CCCc1ccccc1 [Example 85, 3-ethoxy-4-((6-phenylhex-3-en-1-yl)oxy)benzaldehyde]
Odour description [2]: powdery, vanilla, creamy, balsamic, cinnamic

CCOc1cc(C=O)ccc1OCCC=CCCc1ccc(CC(C)C)cc1 [Example 86, 3-ethoxy-4-((6-(4-isobutylphenyl)hex-3-en-1-yl)oxy)benzaldehyde]
Odour description [2]: powdery, vanilla, creamy, floral, muguet

CCOc1cc(C=O)ccc1OCCC=C(C)C1CCCC1 [Example 88, 4-((4-cyclopentylpent-3-en-1-yl)oxy)-3-ethoxybenzaldehyde]
Odour description [2]: powdery, creamy, vanilla

CCCCCCC(C)=CCCOc1ccc(C=O)cc1OCC [Example 89, 3-ethoxy-4-((4-methyldec-3-en-1-yl)oxy)benzaldehyde]
Odour description [2]: powdery, vanilla, creamy

CCCCCCCCC(C)=CCCOc1ccc(C=O)cc1OCC [Example 90, 3-ethoxy-4-((4-methyldodec-3-en-1-yl)oxy)benzaldehyde]
Odour description [2]: powdery, vanilla, creamy, slightly green, sesame seed, sharp, technical | odour intensity, wet [3]: 1.1 | odour intensity, 1 day [3]: 2.7 | odour intensity, 3 days [3]: 2.9

C=CCC(CCCCCCCCC)Oc1ccc(C=O)cc1OCC (centres unmarked) [Example 91, 3-ethoxy-4-(tridec-1-en-4-yloxy)benzaldehyde]
Odour description [2]: powdery, vanilla, aldehydic, fruity, mandarin
